From patent US8283361B2 (AstraZeneca AB, priority 2008, dated 2012)

molecular target: S. aureus GyrB ATPase (Staphylococcus aureus, UniProt P0A0K8); assay: biochemical; conditions: compound at 1 μM; one value per test if tested more than once; 1 µM
Description: S. aureus GyrB ATPase Inhibition Activity: Compounds may be tested for inhibition of S. aureus GyrB ATPase activity using an ammonium molybdate/malachite green-based phosphate detection assay (Lanzetta, P. A., L. J. Alvarez, P. S. Reinach, and O. A. Candia, 1979, 100: 95-97). Assays can be performed in multiwell plates in 30 μl reactions containing: 50 mM Hepes buffer pH 7.5, 75 mM ammonium acetate, 8.0 mM magnesium chloride, 0.5 mM ethylenediaminetetraacetic acid, 5% glycerol, 1.0 mM 1,4-Dithio-DL-threitol, 200 nM bovine serum albumin, 1.0 μg/m1 sheared salmon sperm DNA, 250 pM E. coli GyrA, 250 pM S. aureus GyrB, 250 μM ATP, and compound in dimethylsulfoxide. Reactions can be quenched with 30 μl of ammonium molybdate/malachite green detection reagent containing 1.2 mM malachite green hydrochloride, 8.5 mM ammonium molybdate tetrahydrate, and 1 M hydrochloric acid. […] An IC50 measurement of compound potency for each compound can be determined from reactions performed in the presence of 10 different compound concentrations.

S. aureus GyrB ATPase, sequence (P0A0K8 whole entry): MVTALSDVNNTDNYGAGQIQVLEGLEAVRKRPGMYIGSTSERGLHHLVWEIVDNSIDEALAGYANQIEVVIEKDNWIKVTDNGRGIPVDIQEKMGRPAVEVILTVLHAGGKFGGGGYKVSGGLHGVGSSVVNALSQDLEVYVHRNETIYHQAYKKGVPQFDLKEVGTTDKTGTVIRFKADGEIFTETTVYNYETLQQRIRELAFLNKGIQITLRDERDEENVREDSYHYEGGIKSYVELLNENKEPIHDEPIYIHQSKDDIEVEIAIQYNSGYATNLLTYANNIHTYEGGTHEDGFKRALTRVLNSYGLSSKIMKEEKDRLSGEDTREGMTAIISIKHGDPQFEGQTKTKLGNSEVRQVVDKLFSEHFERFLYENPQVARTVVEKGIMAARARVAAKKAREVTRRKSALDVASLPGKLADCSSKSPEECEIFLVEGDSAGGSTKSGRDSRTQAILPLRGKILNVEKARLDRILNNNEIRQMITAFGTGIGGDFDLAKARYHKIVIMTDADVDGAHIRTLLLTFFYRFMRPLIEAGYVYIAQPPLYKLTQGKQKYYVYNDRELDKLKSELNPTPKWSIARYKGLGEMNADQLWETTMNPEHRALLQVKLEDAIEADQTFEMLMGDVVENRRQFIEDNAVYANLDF
S. aureus GyrB ATPase, sequence (P0AES4 whole entry, further chain): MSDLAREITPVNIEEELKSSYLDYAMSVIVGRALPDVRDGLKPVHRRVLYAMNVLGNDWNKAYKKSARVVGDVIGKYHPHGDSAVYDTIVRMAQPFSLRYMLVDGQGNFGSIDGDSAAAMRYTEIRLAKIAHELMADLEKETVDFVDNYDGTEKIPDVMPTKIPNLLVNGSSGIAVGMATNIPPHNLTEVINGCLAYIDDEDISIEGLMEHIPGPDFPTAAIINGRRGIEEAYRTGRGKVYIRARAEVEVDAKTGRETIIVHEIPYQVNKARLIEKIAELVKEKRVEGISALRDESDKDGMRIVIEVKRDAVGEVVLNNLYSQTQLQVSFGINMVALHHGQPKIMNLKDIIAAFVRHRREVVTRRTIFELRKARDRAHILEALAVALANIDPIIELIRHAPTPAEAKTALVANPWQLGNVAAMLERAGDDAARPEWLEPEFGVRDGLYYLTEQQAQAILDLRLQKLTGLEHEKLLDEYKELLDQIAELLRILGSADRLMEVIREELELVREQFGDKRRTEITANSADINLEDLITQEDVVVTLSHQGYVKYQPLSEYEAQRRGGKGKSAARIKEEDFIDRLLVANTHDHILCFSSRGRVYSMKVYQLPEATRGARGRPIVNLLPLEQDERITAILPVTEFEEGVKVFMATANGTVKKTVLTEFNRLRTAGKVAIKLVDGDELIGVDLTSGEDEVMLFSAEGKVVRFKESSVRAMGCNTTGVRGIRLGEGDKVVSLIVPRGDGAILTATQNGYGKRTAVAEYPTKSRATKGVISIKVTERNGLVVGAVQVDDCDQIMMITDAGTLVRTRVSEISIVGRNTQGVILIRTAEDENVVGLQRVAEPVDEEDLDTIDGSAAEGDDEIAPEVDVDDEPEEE

For CCNC(=O)Nc1cc(-c2nc(C(F)(F)F)cs2)c(-c2ccc3c(c2)c(=O)c(C(=O)O)cn3CCOC)cn1 [Example 1, 6-(6-(3-Ethylureido)-4-(4-(trifluoromethyl)thiazol-2-yl)pyridin-3-yl)-1-(2-methoxyethyl)-4-oxo-1,4-dihydroquinoline-3-carboxylic acid], the “% Inhibition of S. aureus GyrB ATPase” value was 104%.

same assay, conditions: compound at 1 μM; one value per test if tested more than once; read-out: % Inhibition of S. aureus GyrB ATPase

First: CCNC(=O)Nc1cc(-c2nc(C(F)(F)F)cs2)c(-c2ccc3c(c2)c(=O)c(C(=O)O)cn3[C@@H]2CCCC[C@@H]2O)cn1 (relative stereo) [Example 276, 6-(6-(3-ethylureido)-4-(4-(trifluoromethyl)thiazol-2-yl)pyridin-3-yl)-1-(cis-2-hydroxycyclohexyl)-4-oxo-1,4-dihydroquinoline-3-carboxylic acid]
Second: CCNC(=O)Nc1cc(-c2nc(C(F)(F)F)cs2)c(-c2ccc3c(c2)c(=O)c(C(=O)O)cn3C2CC2)cn1 [Example 20, 1-Cyclopropyl-6-(6-(3-ethylureido)-4-(4-(trifluoromethyl)thiazol-2-yl)pyridin-3-yl)-4-oxo-1,4-dihydroquinoline-3-carboxylic acid]
The inhibition at 1 µM of the first is higher: 106% for the first, 96% for the second.

First: CCNC(=O)Nc1cc(-c2nc(C(F)(F)F)cs2)c(-c2ccc3c(c2)c(=O)c(C(=O)O)cn3[C@H]2CNC[C@@H]2O)cn1 (relative stereo) [Example 310, trans 6-(6-(3-ethylureido)-4-(4-(trifluoromethyl)thiazol-2-yl)pyridin-3-yl)-1-(4-hydroxypyrrolidin-3-yl)-4-oxo-1,4-dihydroquinoline-3-carboxylic acid]
Second: CCNC(=O)Nc1cc(-c2nc(C(F)(F)F)cs2)c(-c2ccc3c(c2)c(=O)c(C(=O)O)cn3C2CN(C)C2)cn1 [Example 24, 6-(6-(3-ethylureido)-4-(4-(trifluoromethyl)thiazol-2-yl)pyridin-3-yl)-1-(1-methylazetidin-3-yl)-4-oxo-1,4-dihydroquinoline-3-carboxylic acid]
The inhibition at 1 µM of the first is higher: 106% for the first, 99% for the second.

Compared with CCNC(=O)Nc1cc(-c2nc(C(F)(F)F)cs2)c(-c2ccc3c(c2)c(=O)c(C(=O)O)cn3CCOC)cn1 [Example 1, 6-(6-(3-Ethylureido)-4-(4-(trifluoromethyl)thiazol-2-yl)pyridin-3-yl)-1-(2-methoxyethyl)-4-oxo-1,4-dihydroquinoline-3-carboxylic acid], CCNC(=O)Nc1cc(-c2nc(C(F)(F)F)cs2)c(-c2ccc3c(c2)c(=O)c(C(=O)O)cn3CCCOC)cn1 [Example 12, 6-(6-(3-ethylureido)-4-(4-(trifluoromethyl)thiazol-2-yl)pyridin-3-yl)-1-(3-methoxypropyl)-4-oxo-1,4-dihydroquinoline-3-carboxylic acid] is lower in inhibition at 1 µM: 100% for the first, 93% for the second.

Compared with CCNC(=O)Nc1cc(-c2nc(-c3ccccc3)cs2)c(-c2ccc3c(c2)c(=O)c(C(=O)O)cn3CCOC)cn1 [Example 2, 6-(6-(3-ethylureido)-4-(4-phenylthiazol-2-yl)pyridin-3-yl)-1-(2-methoxyethyl)-4-oxo-1,4-dihydroquinoline-3-carboxylic acid], CCNC(=O)Nc1cc(-c2nc(-c3ccccc3)cs2)c(-c2ccc3c(c2)c(=O)c(C(=O)O)cn3CC)cn1 [Example 16, 1-ethyl-6-(6-(3-ethylureido)-4-(4-phenylthiazol-2-yl)pyridin-3-yl)-4-oxo-1,4-dihydroquinoline-3-carboxylic acid] is higher in inhibition at 1 µM: 100% for the first, 101% for the second.

CCNC(=O)Nc1cc(-c2nc(C(F)(F)F)cs2)c(-c2ccc3c(c2)c(=O)c(C(=O)O)cn3C(COC)COC)cn1 [Example 4, 1-(1,3-dimethoxypropan-2-yl)-6-(6-(3-ethylureido)-4-(4-(trifluoromethyl)thiazol-2-yl)pyridin-3-yl)-4-oxo-1,4-dihydroquinoline-3-carboxylic acid] and CCNC(=O)Nc1cc(-c2nc(C(F)(F)F)cs2)c(-c2ccc3c(c2)c(=O)c(C(=O)O)cn3C(C)C)cn1 [Example 21, 6-(6-(3-Ethylureido)-4-(4-(trifluoromethyl)thiazol-2-yl)pyridin-3-yl)-1-isopropyl-4-oxo-1,4-dihydroquinoline-3-carboxylic acid] are the same in inhibition at 1 µM: 98% for the first, 98% for the second.

First: CCNC(=O)Nc1cc(-c2nc(C(F)(F)F)cs2)c(-c2ccc3c(c2)c(=O)c(C(=O)O)cn3CC)cn1 [Example 10, 1-ethyl-6-(6-(3-ethylureido)-4-(4-trifluoromethylthiazol-2-yl)pyridin-3-yl)-4-oxo-1,4-dihydroquinoline-3-carboxylic acid]
Second: CCNC(=O)Nc1cc(-c2nc(C(F)(F)F)cs2)c(-c2ccc3c(c2)c(=O)c(C(=O)O)cn3CCO)cn1 [Example 19, 6-(6-(3-Ethylureido)-4-(4-(trifluoromethyl)thiazol-2-yl)pyridin-3-yl)-1-(2-hydroxyethyl)-4-oxo-1,4-dihydroquinoline-3-carboxylic acid]
The inhibition at 1 µM of the first is higher: 99% for the first, 98% for the second.

First: CCNC(=O)Nc1cc(-c2nc(C(F)(F)F)cs2)c(-c2cc3c4c(c2)c(=O)c(C(=O)O)cn4CCO3)cn1 [Example 11, 9-(6-(3-ethylureido)-4-(4-trifluoromethylthiazol-2-yl)pyridin-3-yl)-7-oxo-3,7-dihydro-2H-[1,4]oxazino[2,3,4-ij]quinoline-6-carboxylic acid]
Second: CCNC(=O)Nc1cc(-c2nc(-c3ccccc3)cs2)c(-c2cc3c4c(c2)c(=O)c(C(=O)O)cn4CCO3)cn1 [Example 17, 9-(6-(3-ethylureido)-4-(4-phenylthiazol-2-yl)pyridin-3-yl)-7-oxo-3,7-dihydro-2H-[1,4]oxazino[2,3,4-ij]quinoline-6-carboxylic acid]
The inhibition at 1 µM of the first is lower: 102% for the first, 103% for the second.

CCNC(=O)Nc1cc(-c2nc(CC)cs2)c(-c2ccc3c(c2)c(=O)c(C(=O)O)cn3CC)cn1 [Example 13, 1-ethyl-6-(6-(3-ethylureido)-4-(4-ethylthiazol-2-yl)pyridin-3-yl)-4-oxo-1,4-dihydroquinoline-3-carboxylic acid] and CCNC(=O)Nc1cc(-c2nc(C(F)(F)F)cs2)c(-c2ccc3c(c2)c(=O)c(C(=O)O)cn3CCN(C)C)cn1 [Example 18, 1-(2-(dimethylamino)ethyl)-6-(6-(3-ethylureido)-4-(4-(trifluoromethyl)thiazol-2-yl)pyridin-3-yl)-4-oxo-1,4-dihydroquinoline-3-carboxylic acid] are the same in inhibition at 1 µM: 98% for the first, 98% for the second.

Going from CCNC(=O)Nc1cc(-c2nc(-c3ccccc3)cs2)c(-c2ccc3c(=O)c(C(=O)O)cn(CC)c3c2)cn1 [Example 15, 1-ethyl-7-(6-(3-ethylureido)-4-(4-phenylthiazol-2-yl)pyridin-3-yl)-4-oxo-1,4-dihydroquinoline-3-carboxylic acid] to CCNC(=O)Nc1cc(-c2nc(C(F)(F)F)cs2)c(-c2ccc3c(=O)c(C(=O)O)cn(Cc4ccccc4)c3c2)cn1 [Example 28, 1-benzyl-7-{6-[(ethylcarbamoyl)amino]-4-[4-(trifluoromethyl)-1,3-thiazol-2-yl]pyridin-3-yl}-4-oxo-1,4-dihydroquinoline-3-carboxylic acid], the inhibition at 1 µM falls from 101% to 97%.

CCNC(=O)Nc1cc(-c2nc(C(F)(F)F)cs2)c(-c2ccc3c(=O)c(C(=O)O)cn(C)c3c2)cn1 [Example 22, 7-(6-(3-Ethylureido)-4(4-(trifluoromethyl)thiazol-2-yl)pyridin-3-yl)-1-methyl-4-oxo-1,4-dihydroquinoline-3-carboxylic acid] and CCCn1cc(C(=O)O)c(=O)c2ccc(-c3cnc(NC(=O)NCC)cc3-c3nc(C(F)(F)F)cs3)cc21 [Example 27, 7-{6-[(ethylcarbamoyl)amino]-4-[4-(trifluoromethyl)-1,3-thiazol-2-yl]pyridin-3-yl}-4-oxo-1-propyl-1,4-dihydroquinoline-3-carboxylic acid] are the same in inhibition at 1 µM: 99% for the first, 99% for the second.

Going from CCNC(=O)Nc1cc(-c2nc(C(F)(F)F)cs2)c(-c2ccc3c(=O)c(C(=O)O)c[nH]c3c2)cn1 [Example 23, 7-(6-(3-Ethylureido)-4-(4-(trifluoromethyl)thiazol-2-yl)pyridin-3-yl)-4-oxo-1,4-dihydroquinoline-3-carboxylic acid] to CCNC(=O)Nc1cc(-c2nc(C(F)(F)F)cs2)c(-c2ccc3c(=O)c(C(=O)O)cn(CCO)c3c2)cn1 [Example 30, 7-{6-[(ethylcarbamoyl)amino]-4-[4-(trifluoromethyl)-1,3-thiazol-2-yl]pyridin-3-yl}-1-(2-hydroxyethyl)-4-oxo-1,4-dihydroquinoline-3-carboxylic acid], the inhibition at 1 µM falls from 101% to 95%.

Compared with CCNC(=O)Nc1cc(-c2nc(C(F)(F)F)cs2)c(-c2ccc3c(=O)c(C(=O)O)cn(CCC(C)C)c3c2)cn1 [Example 25, 7-{6-[(ethylcarbamoyl)amino]-4-[4-(trifluoromethyl)-1,3-thiazol-2-yl]pyridin-3-yl}-1-(3-methylbutyl)-4-oxo-1,4-dihydroquinoline-3-carboxylic acid], CCNC(=O)Nc1cc(-c2nc(C(F)(F)F)cs2)c(-c2ccc3c(=O)c(C(=O)O)cn(CC4CC4)c3c2)cn1 [Example 32, 1-(cyclopropylmethyl)-7-{6-[(ethylcarbamoyl)amino]-4-[4-(trifluoromethyl)-1,3-thiazol-2-yl]pyridin-3-yl}-4-oxo-1,4-dihydroquinoline-3-carboxylic acid] is lower in inhibition at 1 µM: 99% for the first, 98% for the second.

same assay, conditions: read-out: % Inhibition of S. aureus GyrB ATPase

CCNC(=O)Nc1cc(-c2nc(C(F)(F)F)cs2)c(-c2ccc3c(c2)c(=O)c(C(=O)O)cn3CCCN2CCCC2=O)cn1 [Example 7, 6-(6-(3-ethylureido)-4-(4-(trifluoromethyl)thiazol-2-yl)pyridin-3-yl)-4-oxo-1-(3-(2-oxopyrrolidin-1-yl)propyl)-1,4-dihydroquinoline-3-carboxylic acid sodium] was tested, and the inhibition at 1 µM was 100%.
